Reference: patent US12453707B2, “Vaginal films” (priority 2017, dated 2025)

Key:
[1] = cited from earlier work
[2] = X-ray diffraction solid state solubility of TFV in polymers; type: physicochemical; conditions: XRD of lyophilized polymer:TFV mass, pH 6-6.5
Experimental: X-ray diffraction (XRD) was used to study the solid state solubility of TFV in a series of polymers like HPMC-E5, HEC, and NaCMC-LV. TFV and polymers were dissolved together in milliQ water on a magnetic stirrer to achieve various polymer to TFV (P:T) ratios. pH was adjusted to 6-6.5 using sodium hydroxide equimolar to TFV. The solutions were then lyophilized using a Freezone 6 lyophilizer (Labconco, MO, USA). The powder obtained after lyophilization was scanned on a Philips X-ray diffractometer between 5-50° 2θ. A 37-minute scan was obtained. Similarly obtained XRD scans for lyophilized pure polymers and lyophilized TFV (pH 6-6.5) served as controls.

Compound: C[C@H](Cn1cnc2c(N)ncnc21)OCP(=O)(O)O [TFV, 9-[9(R)-2-(phosphonomethoxy)propyl]adenine]
- pKa, phosphate groups (first value) [1]: 2.1
- pKa, phosphate groups (second value) [1]: 4.3
- pKa, primary amine group [1]: 7.3
- P:T ratio at which HPMC-E5, HEC and NaCMC-LV were able to solubilize TFV [2]: ≥ 3
